# US9932637B2, “Genetic polymorphisms associated with cardiovascular disorders and drug response, methods of detection and uses thereof” (CELERA CORPORATION, priority 2003, dated 2018)
# System: patients with prior myocardial infarction (CARE study)
# Assay: CARE: association of SNPs with pravastatin treatment in RMI prevention (genotypic RR in placebo and statin strata; Table 10)
# Assay type: in vivo, human
# From the text: In order to identify genetic markers associated with acute coronary events (e.g. MI, stroke, unstable angina, congestive heart failure, etc.) or response to statin treatment for the prevention of coronary events, samples from the Cholesterol and Recurrent Events (CARE) study (a randomized multicentral double-blinded trial on secondary prevention of acute coronary events with pravastatin) (Sacks et al., 1991, Am. J. Cardiol. 68: 1436-1446) were genotyped. A well-documented myocardial infarction (MI) was one of the enrollment criteria for entry into the CARE study. Patients were enrolled in the CARE trial from 80 participating study centers. […] Patients were randomized to receive either 40 mg of pravastatin once daily or a matching placebo. The primary endpoint of the trial was death from coronary heart disease and the median duration of follow-up was 5.0 years (range, 4.0 to 6.2 years). […] Secondary endpoints of other related cardiovascular or metabolic disease events, and changes in clinical variables were also recorded in pravastatin-treated and placebo groups. All individuals included in the study had signed a written informed consent form and the study protocol was approved by the respective Institutional Review Boards (IRBs).
# For genotyping SNPs in CARE patient samples, DNA was extracted from blood samples using conventional DNA extraction methods such as the QIA-amp kit from Qiagen. Genotypes were obtained on an ABI PRISM® 7900HT Sequence Detection PCR system (Applied Biosystems, Foster City, Calif.) by kinetic allele-specific PCR, similar to the method described by Germer et al. (Germer S., Holland M. J., Higuchi R. 2000, Genome Res. 10: 258-266).
# For statistical analysis of association of SNPs with pravastatin treatment in RMI prevention (Table 10), effect sizes were estimated through genotypic RR, including 95% CIs. Homogeneity of Cochran-Mantel-Haenszel odds ratios was tested across pravastatin and placebo strata using the Wald test. […] (this adjustment supports independence of the SNP association from conventional risk factors). This table also provides the frequency data for the at risk allele in the columns labeled “Case Y PRIMER ALLELE Nucleotide Frequency” and “Control Y PRIMER ALLELE Nucleotide Frequency”. Allele frequencies for the cases and controls ≤0.49 indicate that the at-risk allele is the minor allele. Allele frequencies ≥0.50 indicate that the at-risk allele is the major allele. An example of a SNP associated with increased risk for an adverse cardiovascular event in the placebo group using a dominant genotypic test is hCV25644901. […] However, this same SNP was protective in the statin treated group with a RR of 0.58. An example of a SNP associated with an adverse cardiovascular event in the placebo group using the allelic association test is hCV16044337 with a RR of 1.87 for the homozygous AA genotype. This same genotype was protective in the statin treated group with a RR of 0.56.
smiles,measurement,setting,value
CC[C@H](C)C(=O)O[C@H]1C[C@H](O)C=C2C=C[C@H](C)[C@H](CC[C@@H](O)C[C@@H](O)CC(=O)O)[C@H]21 [pravastatin],RR (relative risk for RMI),"HSPG2 hCV16172339, Het(TC) stratum, Statin vs Placebo, covars none",0.37
same,RR (relative risk for RMI),"HSPG2 hCV16172339, Maj Hom (CC) stratum, Statin vs Placebo, covars none",0.80
same,RR (relative risk for RMI),"HSPG2 hCV16172339, Statin stratum, het (TC)vs. ref(CC), covars none",0.66
same,RR (relative risk for RMI),"IL4R hCV2351160, Het(GA) stratum, Statin vs Placebo, covars HX_SMOKE",0.57
same,RR (relative risk for RMI),"IL4R hCV2351160, Maj Hom(AA) stratum, Statin vs Placebo, covars HX_SMOKE",0.85
same,RR (relative risk for RMI),"IL4R hCV2351160, Min Hom(GG) stratum, Statin vs Placebo, covars HX_SMOKE",0.36
same,RR (relative risk for RMI),"IL4R hCV2351160, Statin stratum, het(GA) vs. ref(AA), covars HX_SMOKE",0.76
same,RR (relative risk for RMI),"IL4R hCV2351160, Statin stratum, hom (GG)vs. ref(AA), covars HX_SMOKE",0.61
same,RR (relative risk for RMI),"IL4R hCV2769554, Het(GA) stratum, Statin vs Placebo",0.64
same,RR (relative risk for RMI),"IL4R hCV2769554, Maj Hom(AA) stratum, Statin vs Placebo",0.59
same,RR (relative risk for RMI),"IL4R hCV2769554, Min Hom(GG) stratum, Statin vs Placebo",1.56
same,RR (relative risk for RMI),"IL4R hCV2769554, Statin stratum, het(GA) vs. ref(AA)",1.17
same,RR (relative risk for RMI),"IL4R hCV2769554, Statin stratum, hom(GG) vs. ref(AA)",1.26
same,RR (relative risk for RMI),"ITGA9 hCV3215409, Het(GA) stratum, Statin vs Placebo",0.86
same,RR (relative risk for RMI),"ITGA9 hCV3215409, Maj Hom(AA) stratum, Statin vs Placebo",0.84
same,RR (relative risk for RMI),"ITGA9 hCV3215409, Min Hom(GG) stratum, Statin vs Placebo",0.30
same,RR (relative risk for RMI),"ITGA9 hCV3215409, Statin stratum, het (GA)vs. ref(AA)",1.22
same,RR (relative risk for RMI),"ITGA9 hCV3215409, Statin stratum, hom(GG) vs. ref(AA)",0.54
same,RR (relative risk for RMI),"LAMA2 hCV16047108, Het (GA) stratum, Statin vs Placebo",1.31
same,RR (relative risk for RMI),"LAMA2 hCV16047108, Maj Hom (AA) stratum, Statin vs Placebo",0.63
same,RR (relative risk for RMI),"LAMA2 hCV16047108, Statin stratum, het(GA) vs. ref (AA)",2.02
same,RR (relative risk for RMI),"LAMA2 hCV16047108, Statin stratum, hom(GG) vs. ref (AA)",4.97
same,RR (relative risk for RMI),"LPA hCV11225994, Het(GA) stratum, Statin vs Placebo",1.02
same,RR (relative risk for RMI),"LPA hCV11225994, Maj Hom(GG) stratum, Statin vs Placebo",0.62
same,RR (relative risk for RMI),"LPA hCV11225994, Min Hom(AA) stratum, Statin vs Placebo",1.33
same,RR (relative risk for RMI),"LPA hCV11225994, Statin stratum, het(GA) vs. ref (GG)",1.06
same,RR (relative risk for RMI),"LPA hCV11225994, Statin stratum, hom (AA)vs. ref(GG)",2.34
same,RR (relative risk for RMI),"MACF1 hCV3112686, Het(GC) stratum, Statin vs Placebo, covars HX_SMOKE",0.71
same,RR (relative risk for RMI),"MACF1 hCV3112686, Maj Hom(CC) stratum, Statin vs Placebo, covars HX_SMOKE",0.96
same,RR (relative risk for RMI),"MACF1 hCV3112686, Min Hom(GG) stratum, Statin vs Placebo, covars HX_SMOKE",0.42
same,RR (relative risk for RMI),"MACF1 hCV3112686, Statin stratum, het(GC) vs. ref(CC), covars HX_SMOKE",0.98
same,RR (relative risk for RMI),"MACF1 hCV3112686, Statin stratum, hom(GG) vs. ref(CC), covars HX_SMOKE",0.60
same,RR (relative risk for RMI),"NPC1 hCV25472673, Het(TC) stratum, Statin vs Placebo, covars none",0.61
same,RR (relative risk for RMI),"NPC1 hCV25472673, Maj Hom(TT) stratum, Statin vs Placebo, covars none",1.08
same,RR (relative risk for RMI),"NPC1 hCV25472673, Statin stratum, het(TC) vs. ref(TT), covars none",0.76
same,RR (relative risk for RMI),"NPC1 hCV25472673, Statin stratum, hom(CC) vs. ref(TT), covars none",0.87
same,RR (relative risk for RMI),"PLAB hCV7494810, Het(GC) stratum, Statin vs Placebo, covars HX_SMOKE",0.46
same,RR (relative risk for RMI),"PLAB hCV7494810, Maj Hom(CC) stratum, Statin vs Placebo, covars HX_SMOKE",0.94
same,RR (relative risk for RMI),"PLAB hCV7494810, Min Hom(GG) stratum, Statin vs Placebo, covars HX_SMOKE",0.75
same,RR (relative risk for RMI),"PLAB hCV7494810, Statin stratum, het(GC) vs. ref(CC), covars HX_SMOKE",0.67
same,RR (relative risk for RMI),"PLAB hCV7494810, Statin stratum, hom(GG) vs. ref(CC), covars HX_SMOKE",0.68
same,RR (relative risk for RMI),"PPOX hCV25922816, Het(GA) stratum, Statin vs Placebo",0.42
same,RR (relative risk for RMI),"PPOX hCV25922816, Maj Hom(GG) stratum, Statin vs Placebo",0.82
same,RR (relative risk for RMI),"PPOX hCV25922816, Statin stratum, het(GA) vs. ref(GG)",0.64
same,RR (relative risk for RMI),"PTPRJ hCV8895373, Het(GA) stratum, Statin vs Placebo",1.07
same,RR (relative risk for RMI),"PTPRJ hCV8895373, Maj Hom(GG) stratum, Statin vs Placebo",0.60
same,RR (relative risk for RMI),"PTPRJ hCV8895373, Min Hom(AA) stratum, Statin vs Placebo",1.62
same,RR (relative risk for RMI),"PTPRJ hCV8895373, Statin stratum, het(GA) vs. ref (GG)",1.43
same,RR (relative risk for RMI),"PTPRJ hCV8895373, Statin stratum, hom(AA)vs. ref(GG)",1.14
same,RR of adverse cardiovascular event in the statin treated group,"hCV16044337, homozygous AA genotype",0.56
same,RR of adverse cardiovascular event in the statin treated group,"hCV25644901, dominant genotype (GG or GA)",0.58
